Test results published in patent publication US20120125325A1, “THE USE OF AMLEXANOX IN THE THERAPY OF NEUTROPHIL-DRIVEN DISEASES” (priority 2009, published 2012).

Columns and labels:
leukotriene B4 = conditions: Taniguchi et al, 1990, and Kimishoto et al, 2006; cited from earlier work
[1] = test system: LPS-induced neutrophilia in the airways of mice; test: LPS-induced airway neutrophilia in mice, oral amlexanox (Example 1); format: in vivo; conditions: amlexanox 1-30 mg/kg p.o. 1 hour before LPS aerosol, BALF 8 hours after LPS
Experimental: • n=8 • Group 1—sham (control) • Group 2—Vehicle (10% DMSO, p.o.) • Group 3—amlexanox (1 mg/kg, p.o.) • Group 4—amlexanox (3 mg/kg, p.o.) • Group 5—amlexanox (10 mg/kg, p.o.) • Group 6—amlexanox (30 mg/kg, p.o.) • Group 7—dexamethasone (1 mg/ml) • p.o.=per orus (orally)
N.B. All test compounds were administered via oral gavage using a ball tipped stainless steel delivery cannulae or via intra-tracheal dosing (using a PennCentury devise). In all cases this was 1 hour before endotoxin exposure.
In all cases the cells were counted blind using oil immersion microscopy.
Amlexanox dosed via oral gavage was administered in a dose volume of 0.1 ml using a ball tipped stainless steel delivery cannule.

[2] = test system: LPS-induced neutrophilia in the airways of mice; test: LPS-induced airway neutrophilia in mice, inhaled (intra-tracheal) dosing (Example 2); conditions: for piloerection following LPS aerosol exposure: also seen in vehicle treated animals; for tolerance of dosing: mouse, in vivo
Experimental: • n=8 • Group 1—sham • Group 2—vehicle (10% DMSO) • Group 3—amlexanox (0.3 mg/mL) • Group 4—amlexanox (3 mg/mL) • Group 5—amlexanox (10 mg/mL) • Group 6—amlexanox (15 mg/mL) • Group 7—salbutamol (1 mg/mL) • Group 8—amlexanox (0.3 mg/mL)+salbutamol (1 mg/mL) • Group 9—amlexanox (3 mg/mL)+salbutamol (1 mg/mL) • Group 10—dexamethasone (1.0 mg/mL) • Group 11—fluticasone (1.0 mg/mL) • N.B. All test compounds to be administered by intra-tracheal dosing (using a PennCentury device) 1 hour before endotoxin exposure.
Non-fasted mice were weighed, individually identified on the tail with a permanent marker and administered by intra tracheal administration with doses of either vehicle, amlexanox, fluticasone, dexamethasone or salbutamol at time point T=−1 with respect to the start of LPS treatment (see above for group details). At T=0, mice were placed into an exposure chamber and exposed to LPS. The LPS was prepared in a solution of 0.5 mg/ml and aerosolised using a De Vibliss ultrasonic nebuliser 2000, so that 7 ml of the solution was aerosolised during the 30 min exposure period.
8 hours after LPS challenge the trachea was cannulated and BALF extracted. The procedure for this involved infusing and withdrawing 1 mL of PBS into the lungs via a tracheal catheter. This procedure was repeated to give a yield of approximately 2 mL lavage fluid. The BALF was aliquoted for analysis of neutrophilia and the remaining BALF stored at −80° C. for future cytokine analysis if required.
Total and differential white cell counts in the BAL fluid samples were measured using a Neubaur haemocytometer. Cytospin smears of the BAL fluid samples were prepared by centrifugation at 1200 rpm for 1 min at room temperature and stained using a DiffQuik stain system (Dade Behring).
Cells were counted blind using oil immersion microscopy.
Data were reported as total and differential number of cells per mL of BALF, mean±S.E.M. (standard error of the mean).
Inter-group deviations were statistically analysed by a one-way analysis of variance (ANOVA). In the case of significant difference in the mean values among the different levels of treatment, comparisons versus the vehicle group were carried out using the Dunnett's test. In case the equal variance test fails, a Kruskal-Wallis one-way analysis of variance on ranks followed by a Dunn's test were used. p<0.05 will be considered statistically significant.
Test compounds were administered in a dose volume of 20 μL using a FMJ-250 PennCentury device for intra-tracheal dosing.

Compound	LTB4 production (leukotriene B4)	inhibition of LPS-induced neutrophilia (cells in bronchoalveolar lavage fluid, FIG. 1) [1]	piloerection following LPS aerosol exposure ([2]; mice)	inhibition of neutrophilia (total cells and neutrophils in bronchoalveolar lavage fluid, FIGS. 2 to 6) ([2]; mice, amlexanox 0.3-15 mg/mL, 20 μL intra-tracheal 1 hour before LPS aerosol, BALF 8 hours after LPS)	tolerance of dosing [2]	effect as a bronchodilator (Bronchodilator effect)
CC(C)c1ccc2oc3nc(N)c(C(=O)O)cc3c(=O)c2c1 [amlexanox]	increase LTB4 production	effective at inhibiting LPS-induced neutrophilia	noticeable degree of piloerection	inhibits neutrophilia	good tolerance of dosing	little or no effect as a bronchodilator
C[C@@H]1C[C@H]2[C@@H]3CCC4=CC(=O)C=C[C@]4(C)[C@@]3(F)[C@@H](O)C[C@]2(C)[C@@]1(O)C(=O)CO [dexamethasone]			noticeable degree of piloerection		good tolerance of dosing	
C[C@@H]1C[C@H]2[C@@H]3C[C@H](F)C4=CC(=O)C=C[C@]4(C)[C@@]3(F)[C@@H](O)C[C@]2(C)[C@@]1(O)C(=O)SCF [fluticasone]			noticeable degree of piloerection		good tolerance of dosing	
CC(C)(C)NCC(O)c1ccc(O)c(CO)c1 (stereo not drawn) [salbutamol]			noticeable degree of piloerection		good tolerance of dosing	
